Measured values published in ChEMBL document CHEMBL1148496, “Novel alkylpolyaminoguanidines and alkylpolyaminobiguanides with potent antitrypanosomal activity” (Bioorg Med Chem Lett, 2006).

Columns and labels:
[1] = target: Trypanothione reductase (Trypanosoma cruzi, UniProt P28593); test: Inhibition of Trypanosoma cruzi TR
[2] = tested on: Trypanosoma brucei brucei; test: Antitrypanosomal activity against Trypanosoma brucei brucei; format: functional, organism-based
[3] = target: T1, Glutathione reductase, mitochondrial (Homo sapiens, UniProt P00390); test: Inhibition of human glutathione reductase
T1 sequence (P00390 whole entry): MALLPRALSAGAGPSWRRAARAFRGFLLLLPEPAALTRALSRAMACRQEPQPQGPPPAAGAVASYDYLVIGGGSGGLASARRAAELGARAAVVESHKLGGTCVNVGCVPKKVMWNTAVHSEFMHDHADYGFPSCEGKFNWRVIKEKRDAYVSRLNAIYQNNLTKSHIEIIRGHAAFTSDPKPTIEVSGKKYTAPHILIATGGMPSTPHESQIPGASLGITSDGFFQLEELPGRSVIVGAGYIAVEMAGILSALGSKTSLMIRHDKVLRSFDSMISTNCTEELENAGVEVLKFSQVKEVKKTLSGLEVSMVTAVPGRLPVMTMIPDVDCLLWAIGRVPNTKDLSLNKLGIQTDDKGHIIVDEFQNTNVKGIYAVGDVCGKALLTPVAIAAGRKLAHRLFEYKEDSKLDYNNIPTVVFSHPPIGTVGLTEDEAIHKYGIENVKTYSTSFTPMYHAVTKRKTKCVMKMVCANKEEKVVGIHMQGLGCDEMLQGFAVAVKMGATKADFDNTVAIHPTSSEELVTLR

Sequence of Trypanothione reductase (P28593 whole entry): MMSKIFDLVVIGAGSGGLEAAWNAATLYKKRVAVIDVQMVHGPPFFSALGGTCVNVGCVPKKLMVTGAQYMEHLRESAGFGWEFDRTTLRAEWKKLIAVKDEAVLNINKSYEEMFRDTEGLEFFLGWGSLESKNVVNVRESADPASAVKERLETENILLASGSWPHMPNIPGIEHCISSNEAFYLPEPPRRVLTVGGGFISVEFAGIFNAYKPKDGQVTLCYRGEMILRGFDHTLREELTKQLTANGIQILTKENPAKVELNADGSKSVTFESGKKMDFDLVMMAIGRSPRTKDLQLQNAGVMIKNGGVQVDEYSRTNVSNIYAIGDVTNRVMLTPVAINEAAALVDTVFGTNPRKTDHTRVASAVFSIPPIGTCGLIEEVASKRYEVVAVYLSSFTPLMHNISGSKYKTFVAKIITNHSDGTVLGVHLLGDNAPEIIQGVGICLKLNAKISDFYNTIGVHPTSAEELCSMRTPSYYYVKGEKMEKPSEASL

Structure (SMILES) | IC50 [1] [nM] | IC50 [2] [nM] | IC50 [3] [nM]
N=C(NCCCNCCCCNCCCNC(=N)NC(=N)NCCC(c1ccccc1)c1ccccc1)NC(=N)NCCC(c1ccccc1)c1ccccc1 | 2960 | 190 | > 100000
N=C(NCCCNCCCNCCCNC(=N)NC(=N)NCCC(c1ccccc1)c1ccccc1)NC(=N)NCCC(c1ccccc1)c1ccccc1 | 3680 | 1760 | > 100000
NC(=NCCCNCCCCCCCNCCCN=C(N)NCc1ccccc1)NCc1ccccc1 | 69500 | 90 | > 100000
N=C(NCCCNCCCCNCCCNC(=N)NCC(c1ccccc1)c1ccccc1)NCC(c1ccccc1)c1ccccc1 | 4560 | 3350 | > 100000
N=C(NCCCNCCCNCCCNC(=N)NC(=N)NCC(c1ccccc1)c1ccccc1)NC(=N)NCC(c1ccccc1)c1ccccc1 | 4160 | 180 | > 100000
N=C(NCCCNCCCCNCCCNC(=N)NCCC(c1ccccc1)c1ccccc1)NCCC(c1ccccc1)c1ccccc1 | 2970 | 2400 | > 100000
NC(=NCCCNCCCCCCCNCCCN=C(N)NC1CCCCCC1)NC1CCCCCC1 | 17700 | 180 | > 100000
NC(=NCCCNCCCNCCCN=C(N)NCC(c1ccccc1)c1ccccc1)NCC(c1ccccc1)c1ccccc1 | 3600 | 2050 | > 100000
N=C(NCCCNCCCNCCCNC(=N)NCCC(c1ccccc1)c1ccccc1)NCCC(c1ccccc1)c1ccccc1 | 5070 | 1950 | > 100000
NC(=NCCCNCCCCCCCNCCCN=C(N)NCC(c1ccccc1)c1ccccc1)NCC(c1ccccc1)c1ccccc1 | 4720 | 500 | > 100000

The next compounds have a lower IC50 [1] than those just listed; values first:

IC50 [1] [nM] | IC50 [2] [nM] | IC50 [3] [nM] | Structure (SMILES)
2740 | 1050 | > 100000 | N=C(NCCCNCCCCNCCCNC(=N)NC(=N)NCC(c1ccccc1)c1ccccc1)NC(=N)NCC(c1ccccc1)c1ccccc1
2240 | 610 | > 100000 | NC(=NCCCNCCCCCCCNCCCN=C(N)NCCC(c1ccccc1)c1ccccc1)NCCC(c1ccccc1)c1ccccc1
1660 | 450 | > 100000 | N=C(NCCCNCCCCCCCNCCCNC(=N)NC(=N)NCC(c1ccccc1)c1ccccc1)NC(=N)NCC(c1ccccc1)c1ccccc1
950 | 620 | > 100000 | N=C(NCCCNCCCCCCCNCCCNC(=N)NC(=N)NCCC(c1ccccc1)c1ccccc1)NC(=N)NCCC(c1ccccc1)c1ccccc1
